molecular target: phosphorylated active hERK2 enzyme (Homo sapiens (Human), UniProt P28482); assay: Active Human ERK2 (hERK2) Activity Assay (IMAP-FP); assay type: biochemical; details: Table 5, 0.5 nM hERK2, 30 μM ATP, 10 point titration, read-out: AERK2 IC50
Summary of the method: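 IMAP fluorescence-polarization kinase assay: 0.5 nM activated hERK2 with 900 nM unlabeled plus 80 nM labeled peptide and 30 μM ATP, reacted 60 min. Quenched with IMAP beads in binding buffer with 24 mM NaCl; FP read after 60 min equilibration.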

phosphorylated active hERK2 enzyme, sequence (P28482 whole entry): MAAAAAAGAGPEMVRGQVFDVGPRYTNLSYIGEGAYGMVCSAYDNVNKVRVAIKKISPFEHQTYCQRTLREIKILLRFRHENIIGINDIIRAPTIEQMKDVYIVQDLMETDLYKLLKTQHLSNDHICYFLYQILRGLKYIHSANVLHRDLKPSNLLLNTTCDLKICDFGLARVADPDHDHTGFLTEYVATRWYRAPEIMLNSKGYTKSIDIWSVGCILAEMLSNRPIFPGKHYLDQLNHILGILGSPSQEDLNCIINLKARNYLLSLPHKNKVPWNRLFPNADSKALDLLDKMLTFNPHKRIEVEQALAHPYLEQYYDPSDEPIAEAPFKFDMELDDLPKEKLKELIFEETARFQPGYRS

Row | IC50 | Structure (SMILES)
1 | 17.3 nM | C[C@@H](NC(=O)Nc1cc2[nH]nc(N(C)C)c2cn1)c1ccc(F)cc1 [Example 15, 1-[3-(dimethylamino)-1H-pyrazolo[4,3-c]pyridin-6-yl]-3-[(1R)-1-(4-fluorophenyl)ethyl]urea]
2 | 20.6 nM | CO[C@H](C)CNC(=O)Nc1cc2[nH]nc(N3CCOCC3)c2cn1 [Example 16, 1-[(2R)-2-methoxypropyl]-3-(3-morpholin-4-yl-1H-pyrazolo[4,3-c]pyridin-6-yl)urea]

Row | Structure (SMILES) | IC50
3 | CCNc1n[nH]c2cc(NC(=O)N[C@H](C)c3ccccc3)ncc12 [Example 2, (R)-1-(3-(Ethylamino)-1H-pyrazolo[4,3-c]pyridin-6-yl)-3-(1-phenylethyl)urea] | 1.13 nM

same assay, conditions: Table 6, 0.5 nM hERK2, 30 μM ATP, 10 point titration, read-out: AERK2 IC50

Row | IC50 | Structure (SMILES)
4 | 50.2 nM | C[C@@H](NC(=O)Nc1cc2[nH]nc(NC3CC(N(C)C)C3)c2cn1)c1ccccc1 (stereo partly drawn) [Example 169, 1-(3-{[3-(dimethylamino)-cyclobutyl]amino}-1H-pyrazolo[4,3-c]pyridin-6-yl)-3-[(1R)-1-phenylethyl]urea]
5 | 3 nM | COC[C@@H](NC(=O)Nc1cc2[nH]nc(N3CC4CC3CO4)c2cn1)c1ccccc1 (stereo partly drawn) [Example 451, 1-[(1S)-2-methoxy-1-phenylethyl]-3-[3-(2-oxa-5-azabicyclo[2.2.1]-hept-5-yl)-1H-pyrazolo[4,3-c]-pyridin-6-yl]urea]
6 | 9.3 nM | C[C@@H](NC(=O)Nc1cc2[nH]nc(NCc3ccccn3)c2cn1)c1ccccc1 [Example 190, 1-[(1R)-1-phenylethyl]-3-{3-[(pyridin-2-yl-methyl)amino]-1H-pyrazolo[4,3-c]-pyridin-6-yl}urea]
7 | 6.7 nM | CCNc1n[nH]c2cc(NC(=O)N[C@H](C)c3ccc(F)c(Cl)c3)ncc12 [Example 245, 1-[(1R)-1-(3-chloro-4-fluorophenyl)ethyl]-3-[3-(ethylamino)-1H-pyrazolo[4,3-c]pyridin-6-yl]urea]
8 | 484 nM | CC(=O)N(C)c1n[nH]c2cc(NC(=O)N[C@H](C)c3ccccc3)ncc12 [Example 349, N-methyl-N-[6-({[(1R)-1-phenyl-ethyl]carbamoyl}-amino)-1H-pyrazolo[4,3-c]-pyridin-3-yl]-acetamide]
9 | 1.3 nM | CC(Nc1n[nH]c2cc(NC(=O)N[C@H](COC(F)F)c3ccccc3)ncc12)C(F)(F)F (stereo partly drawn) [Example 428, 1-[(1S)-2-(difluoromethoxy)-1-phenylethyl]-3-{3-[(2,2,2-trifluoro-1-methylethyl)-amino]-1H-pyrazolo[4,3-c]-pyridin-6-yl}urea]
10 | 20.7 nM | CCOc1ncccc1CNC(=O)Nc1cc2[nH]nc(N)c2cn1 [Example 262, 1-(3-amino-1H-pyrazolo[4,3-c]pyridin-6-yl)-3-[(2-ethoxypyridin-3-yl)methyl]urea]
11 | 2.6 nM | COC(=O)Nc1n[nH]c2cc(NC(=O)N[C@H](C)c3ccc(F)cc3)ncc12 [Example 321, (R)-methyl (6-(3-(1-(4-fluorophenyl)ethyl)ureido)-1H-pyrazolo[4,3-c]pyridin-3-yl)carbamate]
12 | 0.4 nM | COC[C@@H](NC(=O)Nc1cc2[nH]nc(NC3CCC3)c2cn1)c1ccccc1 [Example 346, 1-[3-(cyclobutyl-amino)-1H-pyrazolo[4,3-c]-pyridin-6-yl]-3-[(1S)-2-methoxy-1-phenylethyl]urea]
13 | 4.7 nM | C[C@H](Nc1n[nH]c2cc(NC(=O)N[C@H](C)c3ccccc3)ncc12)c1ccccn1 [Example 86, 1-[(1R)-1-phenylethyl]-3-(3-{[(1S)-1-pyridin-2-ylethyl]amino}-1H-pyrazolo[4,3-c]-pyridin-6-yl)urea]
14 | 3.6 nM | COC(=O)Nc1n[nH]c2cc(NC(=O)N[C@H](C)c3ccc(Cl)c(C(F)(F)F)c3)ncc12 [Example 309, methyl {6-[({(1R)-1-[4-chloro-3-(trifluoromethyl)-phenyl]ethyl}-carbamoyl)amino]-1H-pyrazolo[4,3-c]pyridin-3-yl}-carbamate]
15 | 9.6 nM | CCNc1n[nH]c2cc(NC(=O)NCc3cccnc3OCC)ncc12 [Example 238, 1-[(2-ethoxy-pyridin-3-yl)-methyl]-3-[3-(ethylamino)-1H-pyrazolo[4,3-c]pyridin-6-yl]urea]
16 | 25.4 nM | C[C@@H](NC(=O)Nc1cc2[nH]nc(N3CC(C(C)(C)O)C3)c2cn1)c1ccccc1 [Example 94, 1-{3-[3-(1-hydroxy-1-methylethyl)-azetidin-1-yl]-1H-pyrazolo[4,3-c]-pyridin-6-yl}-3-[(1R)-1-phenylethyl]-urea]
17 | 1.6 nM | CC(C)(O)[C@@H](NC(=O)Nc1cc2[nH]nc(NC(=O)OC3CCOCC3)c2cn1)c1ccc(F)cc1 [Example 400, tetrahydro-2H-pyran-4-yl [6-({[(1S)-1-(4-fluorophenyl)-2-hydroxy-2-methylpropyl]-carbamoyl}amino)-1H-pyrazolo[4,3-c]pyridin-3-yl]-carbamate]
18 | 0.5 nM | C[C@@H](O)[C@@H](NC(=O)Nc1cc2[nH]nc(N3CCc4ncsc4C3)c2cn1)c1ccccc1 [Example 387, 1-[3-(6,7-dihydro[1,3]-thiazolo[5,4-c]-pyridin-5(4H)-yl)-1H-pyrazolo[4,3-c]pyridin-6-yl]-3-[(1S,2R)-2-hydroxy-1-phenylpropyl]urea]
19 | 52 nM | CCNc1n[nH]c2cc(NC(=O)N[C@@H]3CCOc4ccccc43)ncc12 [Example 234, 1-[(4R)-3,4-dihydro-2H-chromen-4-yl]-3-[3-(ethylamino)-1H-pyrazolo[4,3-c]pyridin-6-yl]urea]

Row | IC50 | Structure (SMILES)
20 | 1.7 nM | CC(C)CNc1n[nH]c2cc(NC(=O)N[C@H](C)c3ccccc3)ncc12 [Example 189, 1-{3-[(2-methylpropyl)-amino]-1H-pyrazolo[4,3-c]-pyridin-6-yl}-3-[(1R)-1-phenylethyl]urea]
21 | 18.1 nM | C[C@@H](NC(=O)Nc1cc2[nH]nc(N)c2cn1)C1CCCCC1 [Example 255, 1-(3-amino-1H-pyrazolo[4,3-c]pyridin-6-yl)-3-[(1R)-1-cyclohexyl-ethyl]urea]
22 | 3.4 nM | C[C@@H](NC(=O)Nc1cc2[nH]nc(NC(=O)N3CC(F)(F)C3)c2cn1)c1ccc(F)cc1 [Example 128, 3,3-difluoro-N-[6-({[(1R)-1-(4-fluorophenyl)ethyl]carbamoyl}amino)-1H-pyrazolo[4,3-c]pyridin-3-yl]-azetidine-1-carboxamide]
23 | 4.4 nM | C[C@@H](NC(=O)Nc1cc2[nH]nc(NC3CCCOC3)c2cn1)c1ccccc1 (stereo partly drawn) [Example 174, 1-[(1R)-1-phenylethyl]-3-[3-(tetrahydro-2H-pyran-3-ylamino)-1H-pyrazolo[4,3-c]pyridin-6-yl]urea]
24 | 101 nM | C[C@@H](NC(=O)Nc1cc2[nH]nc(N3CCCC3=O)c2cn1)c1ccccc1 [Example 408, 1-[3-(2-oxopyrrolidin-1-yl)-1H-pyrazolo[4,3-c]-pyridin-6-yl]-3-[(1R)-1-phenylethyl]urea]
25 | 25.1 nM | CC(C)NC(=O)Nc1n[nH]c2cc(NC(=O)N[C@H](C)c3ccccc3)ncc12 [Example 218, 1-(1-methylethyl)-3-[6-({[(1R)-1-phenylethyl]-carbamoyl}amino)-1H-pyrazolo[4,3-c]pyridin-3-yl]urea]
26 | 2.5 nM | COC(=O)Nc1n[nH]c2cc(NC(=O)NCc3ccccc3OC(F)F)ncc12 [Example 296, methyl [6-({[2-(difluoromethoxy)-benzyl]carbamoyl}-amino)-1H-pyrazolo[4,3-c]-pyridin-3-yl}-carbamate]
27 | 1 nM | C[C@@H](NC(=O)Nc1cc2[nH]nc(NC(=O)C3CC3)c2cn1)c1ccccc1 [Example 317, (R)—N-(6-(3-(1-phenylethyl)ureido)-1H-pyrazolo[4,3-c]pyridin-3-yl)cyclopropanecarboxamide]
28 | 57.7 nM | CC(CNC(=O)Nc1cc2[nH]nc(N)c2cn1)c1ccccc1 (stereo not drawn) [Example 254, 1-(3-amino-1H-pyrazolo[4,3-c]pyridin-6-yl)-3-(2-phenyl-propyl)urea]
29 | 5.8 nM | COC(=O)Nc1n[nH]c2cc(NC(=O)NC3CNc4ccccc4C3)ncc12 (stereo not drawn) [Example 293, methyl {6-[(1,2,3,4-tetrahydroquinolin-3-ylcarbamoyl)-amino]-1H-pyrazolo[4,3-c]-pyridin-3-yl}-carbamate]
30 | 72.1 nM | C[C@@H](NC(=O)Nc1cc2[nH]nc(Nc3ccc(F)nc3)c2cn1)c1ccccc1 [Example 382, 1-{3-[(6-fluoropyridin-3-yl)amino]-1H-pyrazolo[4,3-c]-pyridin-6-yl}-3-[(1R)-1-phenylethyl]urea]
31 | 4.4 nM | C[C@@H](NC(=O)Nc1cc2[nH]nc(N[C@@H]3COC[C@@H]3F)c2cn1)c1ccccc1 [Example 84, 1-(3-{[(3R,4R)-4-fluorotetrahydrofuran-3-yl]amino}-1H-pyrazolo[4,3-c]-pyridin-6-yl)-3-[(1R)-1-phenylethyl]urea]
32 | 2280 nM | COC[C@@H](NC(=O)Nc1cc2[nH]nc(Nc3ccccc3C#N)c2cn1)c1ccccc1 [Example 383, 1-{3-[(2-cyanophenyl)amino]-1H-pyrazolo[4,3-c]pyridin-6-yl}-3-[(1S)-2-methoxy-1-phenylethyl]urea]
33 | 0.8 nM | COC[C@@H](NC(=O)Nc1cc2[nH]nc(N[C@@H]3CCOC3)c2cn1)c1ccccc1 [Example 75, 1-[(1S)-2-methoxy-1-phenylethyl]-3-{3-[(3R)-tetrahydro-furan-3-ylamino]-1H-pyrazolo[4,3-c]-pyridin-6-yl}urea]
34 | 1.5 nM | CC(C)(O)[C@@H](NC(=O)Nc1cc2[nH]nc(NC(=O)OCC(F)F)c2cn1)c1ccc(F)cc1 [Example 406, 2,2-difluoroethyl [6-({[(1S)-1-(4-fluorophenyl)-2-hydroxy-2-methyl-propyl]carbamoyl}amino)-1H-pyrazolo[4,3-c]-pyridin-3-yl]-carbamate]
35 | 0.7 nM | Nc1n[nH]c2cc(NC(=O)N[C@@H](c3ccccc3)[C@H]3CCCO3)ncc12 [Example 153, 1-(3-amino-1H-pyrazolo[4,3-c]pyridin-6-yl)-3-{(S)-phenyl[(2R)-tetrahydrofuran-2-yl]methyl}urea]

Row | Structure (SMILES) | IC50
36 | C[C@@H](NC(=O)Nc1cc2[nH]nc(NC(=O)Oc3ccccc3)c2cn1)c1ccccc1 [Example 222, phenyl[6-({[(1R)-1-phenylethyl]-carbamoyl}amino)-1H-pyrazolo[4,3-c]pyridin-3-yl]-carbamate] | 3.6 nM

Source: patent US9233979B2, “Compounds that are ERK inhibitors” (Merck Sharp & Dohme Corp., priority 2012, dated 2016)
